Several values for one entry are separate records, joined by “and”; a condition that tells them apart may be missing. Equal entries are not always repeated.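 How tested: cells in 96-well plates exposed to compound for 48 hours at five concentrations. GI50 is the concentration that inhibits growth by half. At the TGI there is no net growth.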
Legend:
Test in all cases: NCI anticancer screen, dose series, 48 h
[1] = tested on: CCRF-CEM leukemia
[2] = tested on: UO-31 renal
[3] = tested on: T-47D breast
[4] = tested on: HS 578T breast
[5] = tested on: NCI-H522 lung
[6] = tested on: TK-10 renal
[7] = tested on: SK-OV-3 ovarian
[8] = tested on: K-562 leukemia
[9] = tested on: HCT-116 colon
[10] = tested on: PC-3 prostate

Structure (SMILES) | TGI [1] | TGI [2] | TGI [3] | TGI [4] | TGI [5] | TGI [6] | TGI [7] | TGI [8] | TGI [9] | TGI [10] | GI50 [1] | GI50 [2] | GI50 [3] | GI50 [4] | GI50 [5] | GI50 [6] | GI50 [7] | GI50 [8] | GI50 [9] | GI50 [10]
Nc1nn2c(=O)c3ccccc3nc2s1 | 46.9 µM | > 100 µM | > 100 µM | > 100 µM | 50.3 µM | > 100 µM | > 100 µM | 88.7 µM | > 100 µM | > 100 µM |  |  |  |  |  |  |  |  |  | 
Cc1cnc2c(c1)C(=O)C1=C(C2=O)C2OC(=O)CC2OC1(C)C (stereo unspecified) | 0.151 µM | 1.26 µM | 1.42 µM | 0.693 µM | 0.148 µM | 1.95 µM | 2.77 µM |  | 0.399 µM | 0.812 µM |  |  |  |  |  |  |  |  |  | 
CCOC(=O)/C=C(\C(=O)OCC)n1ccc(=O)n(Cc2cn(COCCOC(C)=O)nn2)c1=O | 11.9 µM | 34.1 µM | 55.8 µM | 63.6 µM | 8.34 µM | 29.2 µM | > 100 µM | > 100 µM | 33 µM | 41.5 µM |  |  |  |  |  |  |  |  |  | 
COC(=O)/C(C#N)=C(/NCCN)Nc1ccccc1 |  | > 100 µM | > 100 µM | > 100 µM | > 100 µM | > 100 µM | > 100 µM | > 100 µM | > 100 µM | > 100 µM |  |  |  |  |  |  |  |  |  | 
COC(=O)C1=Nc2c(C)nn(-c3ccccc3)c2N=C(c2ccccc2)C1 |  |  | > 10 µM | > 10 µM | > 10 µM | > 10 µM | > 10 µM | > 10 µM | > 10 µM | > 10 µM |  |  |  |  |  |  |  |  |  | 
CCOC(=O)c1nnsc1NN | > 100 µM | > 100 µM |  | > 100 µM | > 100 µM | > 100 µM | > 100 µM |  | > 100 µM | > 100 µM |  |  |  |  |  |  |  |  |  | 
O=C(c1ccncc1)C1C(=O)c2ccccc2C1C1(O)c2ccccc2CC1C(O)c1ccncc1 (stereo unspecified) |  | 29 µM | > 100 µM | > 100 µM | > 100 µM | > 100 µM | > 100 µM | > 100 µM | > 100 µM |  |  |  |  |  |  |  |  |  |  | 
Cc1c2c(OCC3CCCCO3)nn(C)c(=O)c2c(C)n1-c1ccccc1 (stereo unspecified) |  | 31.2 µM | 70.3 µM | 46.6 µM | 34.9 µM | 45.4 µM | 34.8 µM | > 100 µM | 31.6 µM | 36 µM |  |  |  |  |  |  |  |  |  | 
CCCCCCCCCc1nn2c(Cc3ccccc3)nnc2s1 |  | 25.8 µM | 97.5 µM | 38.5 µM | 27 µM | 54.5 µM | 66.7 µM | > 100 µM | 31.9 µM | 51 µM |  |  |  |  |  |  |  |  |  | 
O=c1cc(-c2ccccc2)oc2c(-c3cc(Cl)cc4c(=O)cc(-c5ccccc5)oc34)cc(Cl)cc12 | 54.6 µM | 60.4 µM | 75.6 µM | > 100 µM | 55.3 µM | > 100 µM | 85.2 µM | > 100 µM |  | > 100 µM |  |  |  |  |  |  |  |  |  | 
COc1cc(/C=C/C=C2\CC/C(=C\C=C\c3ccc(O)c(OC)c3)C2=O)ccc1O | 8.26 µM | > 100 µM | > 100 µM | > 100 µM | 25.9 µM | > 100 µM | > 100 µM | 52.7 µM | > 100 µM | > 100 µM |  |  |  |  |  |  |  |  |  | 
COc1ccc(CN2C3CC2CN(c2ccc(-c4cc(OCC(C)(C)O)cn5ncc(C#N)c45)cn2)C3)cn1 | > 100 µM | > 100 µM | > 100 µM | 7.12 µM | > 100 µM | > 100 µM | > 100 µM | > 100 µM | > 100 µM | > 100 µM | 3.59 µM | 7.32 µM | 9.02 µM | 2.01 µM | 17.5 µM | 10.5 µM | 5.64 µM | > 100 µM | 8.06 µM | 16.3 µM
CC(=O)c1ccc2c(c1)CC1(C2)Cc2ccccc2C1=O (stereo unspecified) | > 100 µM | > 100 µM | > 100 µM | > 100 µM | 99.6 µM | 91.4 µM | > 100 µM | > 100 µM | > 100 µM | > 100 µM |  |  |  |  |  |  |  |  |  | 
COc1cc2c(cc1Cc1c(F)cccc1Cl)nc(-c1c(F)cccc1Cl)n2Cc1c(F)cccc1Cl | > 100 µM | > 100 µM | 59.5 µM | > 100 µM | 59 µM | > 100 µM | 70 µM | > 100 µM | > 100 µM | > 100 µM |  |  |  |  |  |  |  |  |  | 
CC(C)OC(=O)OCSc1ccccc1N=Cc1cccc([N+](=O)[O-])c1 | > 10 µM | > 10 µM | > 10 µM | > 10 µM | > 10 µM | > 10 µM | > 10 µM | > 10 µM | > 10 µM | > 10 µM |  |  |  |  |  |  |  |  |  | 
[O-]/[N+](=C\c1ccccc1OC(=S)S)c1ccc(Cl)cc1 | > 100 µM | 76.6 µM | 88.2 µM | > 100 µM | 52.8 µM | > 100 µM | > 100 µM | > 100 µM | 72.7 µM | > 100 µM |  |  |  |  |  |  |  |  |  | 
CC(=O)OC(Cn1cncn1)(Cn1cncn1)c1ccc(Cl)cc1Cl | > 100 µM | > 100 µM | > 100 µM | > 100 µM | > 100 µM | > 100 µM | > 100 µM | > 100 µM |  | > 100 µM |  |  |  |  |  |  |  |  |  | 
C[n+]1c(-c2ccc(/C=C/C=N\NC(=O)c3ccc(C(=O)N/N=C\C=C\c4ccc(-c5cn6ccccc6[n+]5C)cc4)cc3)cc2)cn2ccccc21 | > 58.2 µM | > 100 µM | > 80.2 µM | > 100 µM | > 100 µM | > 100 µM | > 100 µM | > 51.2 µM | > 100 µM | > 100 µM |  |  |  |  |  |  |  |  |  | 
C=Cc1ccccc1C1(O)C=CC(OC)(OC)C=C1 | 8.46 µM | 19.8 µM | > 100 µM | > 100 µM | 23.9 µM | 10.7 µM | 29.3 µM | > 100 µM | 11.7 µM | 29.1 µM |  |  |  |  |  |  |  |  |  | 
CC(=O)OC1CCC2C3CCc4c(C)ccc(OS(=O)(=O)c5ccccc5)c4C3CCC12C (stereo unspecified) | > 100 µM | 50.1 µM |  |  | > 100 µM | > 100 µM | > 100 µM | > 100 µM | 48.3 µM | > 100 µM |  |  |  |  |  |  |  |  |  | 
C=C(CN(C)C)C(=O)c1ccccc1[N+](=O)[O-] | 8.06 µM | 32.2 µM | 18.6 µM and 28.6 µM | 77.1 µM | 7.74 µM | 34.3 µM and 26.3 µM | > 86.8 µM | 27.7 µM and 12.9 µM | 31.6 µM and 38.3 µM | 31.3 µM and 13.5 µM | 2.7 µM and 2.18 µM |  | 5.68 µM |  |  | 12.9 µM |  | 3.38 µM | 7.18 µM | 

Reference: PubChem BioAssay (NCI)
